Laboratory results taken from ChEMBL document CHEMBL5728127, “Diarylalkanes as potent inhibitors of binuclear enzymes” (2020).

Target: T1, Polyphenol oxidase 1 (Agaricus bisporus, UniProt Q00024)
T1 sequence (Q00024 whole entry): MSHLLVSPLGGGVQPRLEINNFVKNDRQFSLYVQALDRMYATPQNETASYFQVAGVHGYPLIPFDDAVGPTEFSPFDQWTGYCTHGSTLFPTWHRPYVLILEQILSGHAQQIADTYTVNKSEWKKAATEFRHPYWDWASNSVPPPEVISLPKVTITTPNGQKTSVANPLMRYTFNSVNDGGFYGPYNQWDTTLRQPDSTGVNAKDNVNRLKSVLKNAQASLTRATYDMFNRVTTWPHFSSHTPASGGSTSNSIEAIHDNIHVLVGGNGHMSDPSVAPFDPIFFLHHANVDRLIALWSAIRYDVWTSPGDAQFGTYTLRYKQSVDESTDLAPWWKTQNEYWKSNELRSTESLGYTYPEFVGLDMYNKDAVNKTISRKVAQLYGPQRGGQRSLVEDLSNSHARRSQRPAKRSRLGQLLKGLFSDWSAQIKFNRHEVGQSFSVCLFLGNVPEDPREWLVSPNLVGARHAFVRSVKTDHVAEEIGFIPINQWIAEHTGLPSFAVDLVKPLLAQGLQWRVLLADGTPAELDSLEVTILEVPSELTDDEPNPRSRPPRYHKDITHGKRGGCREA
Assay: Using this method, the conversion of L-Dopa, a substrate of tyrosinase, into dopachrome is followed by monitoring absorption at 450 nm. Tyrosinase was prepared in 50 mM potassium phosphate buffer, pH 6.8 (assay buffer) at 2000 U/ml and stored at −20° C. in 1 ml aliquots prior to use. For use in assays, stock enzyme solutions were thawed and diluted to 200 U/ml with assay buffer. A 2 mM working solution of substrate, L-DOPA, was prepared in assay buffer for each assay. Samples were dissolved in 10% DMSO (0.5 ml) and diluted to 5 ml with assay buffer. The reaction mixture consisted of 0.050 ml 2 mM L-DOPA, 0.050 ml 200 U/ml mushroom tyrosinase and 0.050 ml inhibitor. Reaction volume was adjusted to 200 μl with assay buffer. […] Average velocity was determined from linear enzyme rate as measured by change in absorbance (ΔA450) at 450 nm per minute.

Compound | IC50 [µM]
COc1ccc(CCCc2ccc(O)cc2O)c(OC)c1C | 0.24
COc1ccc(CCC(O)c2c(O)cc(O)cc2O)cc1O (stereo unspecified) | 1200
COc1cc(O)c(C(O)CCc2ccc(O)c(OC)c2)c(OC)c1 (stereo unspecified) | 375
Oc1ccc(C(O)CCc2ccccc2O)c(O)c1 (stereo unspecified) | 0.7
COc1ccc(CC(O)c2ccc(O)cc2O)cc1 (stereo unspecified) | 77
Oc1ccc(C(O)Cc2ccc(Cl)cc2Cl)c(O)c1 (stereo unspecified) | 1000
Oc1ccc(CCC(O)c2ccc(O)cc2)cc1 (stereo unspecified) | 305
COc1ccc(O)c(CCCc2ccc(O)cc2OC)c1 | 24
Nc1ccc(CCC(O)c2c(O)cc(O)cc2O)cc1 (stereo unspecified) | 8
COc1ccc(CCC(O)c2cc(OC)ccc2O)c(OC)c1 (stereo unspecified) | 1000
CC(Cc1ccc(O)c(O)c1)C(C)Cc1ccc(O)c(O)c1 (stereo unspecified) [NORDIHYDROGUAIARETIC ACID] | 700
